In US11819021B2, “Peptides and methods and uses thereof for modulating anaphase promoting complex (APC) activity” (University of Saskatchewan, priority 2017, dated 2023):
Entries after “also recorded” stand apart in the source; their conditions may differ.

What was measured:
APC = experiment: Yeast 2-hybrid binding to the APC
Text: As used herein, the expression “binds to the APC” refers to a peptide that binds to at least one subunit of the APC, for example Apc5 or Apc10. Binding can be measured for example, by any method known in the art, including, but not limited to a yeast 2-hybrid assay.
(§1) The reverse genetic screen utilized a yeast 2-hybrid (Y2H) protocol that selected for peptides that bound to the APC subunits Apc5 or Apc10 (see FIG. 5 for APC structure), to assess whether peptide-binding might modify APC function. Peptides that bound APC subunits were then assayed for those that suppressed APC mutant defects.
(§2) Random small peptides were cloned into the TrxA scaffold (library provided by R. Geyer, U of S) and expressed from a galactose-inducible Y2H prey vector in cells harboring either APC5 or APC10 Y2H bait vectors (APC5/APC10 bait constructs complement APC mutant defects).

[1] = test system: apc5^CA temperature sensitive mutant; experiment: Forward genetic screen: rescue of apc5^CA temperature sensitive growth; format: cell-based, yeast
Text: Using a forward genetic screen to test whether temperature sensitive (ts) APC mutants expressing random small peptides could grow at restrictive temperatures, millions of small peptides were rapidly screened for those that could restore mutant APC phenotypes. Peptides that rescued the apc5^CA ts (temperature sensitive) defect were recovered including peptides Y65 and Y36.
In the forward screens, with galactose-inducible TrxA-based peptide libraries, in cells harboring the apc5^CA ts allele, over 200 peptides (from millions screened) suppressed the ts phenotype. Several recovered plasmids were sequenced.

Apc5 = biological target: T1, Apc5 (Saccharomyces cerevisiae, UniProt Q08683); experiment: Yeast 2-hybrid (Y2H) binding of peptide prey to Apc5 bait; details: galactose-inducible Trx-scaffold peptide prey
T1 construct: expressed in transfected cells; host or cells: yeast Y2H cells
T1 sequence (Q08683 1-685): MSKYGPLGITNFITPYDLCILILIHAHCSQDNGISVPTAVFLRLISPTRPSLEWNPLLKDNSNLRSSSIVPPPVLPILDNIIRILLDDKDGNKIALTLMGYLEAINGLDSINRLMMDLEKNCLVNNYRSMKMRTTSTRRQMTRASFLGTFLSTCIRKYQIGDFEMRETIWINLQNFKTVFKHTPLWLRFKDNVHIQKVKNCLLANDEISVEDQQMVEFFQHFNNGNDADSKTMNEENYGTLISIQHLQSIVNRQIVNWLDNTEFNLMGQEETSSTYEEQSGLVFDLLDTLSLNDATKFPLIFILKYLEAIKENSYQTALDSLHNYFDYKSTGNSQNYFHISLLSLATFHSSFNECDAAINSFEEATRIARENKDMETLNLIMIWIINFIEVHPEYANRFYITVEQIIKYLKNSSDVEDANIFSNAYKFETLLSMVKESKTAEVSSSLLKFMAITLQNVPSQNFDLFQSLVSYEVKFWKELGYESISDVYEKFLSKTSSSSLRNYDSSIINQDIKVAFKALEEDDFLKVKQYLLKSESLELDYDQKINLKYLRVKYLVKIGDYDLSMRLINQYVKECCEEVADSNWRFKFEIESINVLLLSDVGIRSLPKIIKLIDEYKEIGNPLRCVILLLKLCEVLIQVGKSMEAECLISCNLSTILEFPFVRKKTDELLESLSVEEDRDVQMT
Description: as §1, §2
(§3) Over 100 peptides that bound either Apc5 or Apc10 were recovered from millions screened. Six peptides that reproducibly interacted with the Apc10 bait construct in Y2H assays were examined further. Vectors expressing these 6 peptides were transformed into APC mutant cells and assessed for ts growth.

[2] = test system: APC mutant (apc5 temperature sensitive mutant and/or apc10Δ mutant); experiment: Viability/growth of APC mutant yeast cells; format: cell-based
Description: (§4) A. apc5^CA cells expressing small peptides were assayed for replicative life span (RLS). B. Cells expressing HTZ1 were grown under stress conditions. HTZ1 expression, even at low levels, suppresses apc5^CA and apc10Δ defects. The cells shown were transformed with either an empty vector or GAL inducible HTZ1. On 2% glucose, the construct is weakly expressed, and this is enough to increase growth of APC mutants at 30° C.
Examples of yeast cells with defective anaphase promoting complex (APC) function include apc5 and apc10 mutants. An example of an apc5 mutant is the apc5 temperature sensitive mutant described herein. An example of an apc10 mutant is the apc10 deletion mutant described herein.
as §1, §3

Apc10 = biological target: T2, Apc10 (Saccharomyces cerevisiae, UniProt P53068); experiment: Yeast 2-hybrid (Y2H) binding of peptide prey to Apc10 bait; details: galactose-inducible Trx-scaffold peptide prey
T2 construct: expressed in transfected cells; host or cells: yeast Y2H cells
T2 sequence (P53068 1-250): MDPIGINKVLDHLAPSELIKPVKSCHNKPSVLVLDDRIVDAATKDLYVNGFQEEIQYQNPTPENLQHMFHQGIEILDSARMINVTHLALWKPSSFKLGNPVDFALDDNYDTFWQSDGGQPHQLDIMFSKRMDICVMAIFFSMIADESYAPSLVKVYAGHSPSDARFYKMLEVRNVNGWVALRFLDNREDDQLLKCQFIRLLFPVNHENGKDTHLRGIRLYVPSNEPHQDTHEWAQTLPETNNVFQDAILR
Description: as §1
A library of random small peptides were cloned into a Thioredoxin (Trx) scaffold (see FIG. 6 for Trx-aptamer structure) and expressed from a galactose-inducible Y2H prey vector in cells expressing the Apc10 bait vector (the modified Apc10 is still part of the complete APC complex). Six peptides that reproducibly interacted with the Apc10 bait construct in Y2H assays were identified (FIG. 1A) and were examined further.
as §2, §3

apc10Δ cells = experiment: Spot dilution growth of apc10Δ cells expressing peptides; format: cell-based, yeast
Text: A. Y2H cells expressing the APC subunit bait and the galactose inducible Apc10 peptide prey grown on glucose or galactose. Cells co-expressing the Apc5 or Apc10-bait and Apc10 aptamer-prey vectors were spotted onto the appropriate media, in the presence or absence of galactose (the aptamers are Gal inducible), to confirm 2-hybrid interactions. Growth on trp-his-media ensures both plasmids are maintained. A 2-hybrid interaction will drive expression of the ADE2 gene, allowing growth on ade-media. B. Aptamers that bind Apc10 can suppress APC mutant phenotypes. Spot dilutions of apc10Δ cells expressing an empty vector control or the one of 6 Apc10 aptamers tested. Log phase cells were 10-fold serially diluted and spotted onto plates containing either 2% glucose or 2% galactose. The plates were then incubated at 30° C. (permissive temperature) and 34° C. (restrictive stress). C. Peptides identified as binding to the yeast Apc10 APC subunit using the yeast 2-hybrid screen increase growth of cells on stress conditions. A series of APC binding peptides were transformed into wild type yeast cells, spot diluted, and grown at 30° C. on media supplemented with the normal carbon source (2% glucose). Alternatively, cells were grown on media supplemented with 2% galactose to induce a carbon stress. D. Peptides were expressed in apc5^ts temperature sensitive cells and grown on glucose or galactose media at 30° C.
The cells were exposed to 5 sec of UV from a UV box prior to incubation.
The six peptide expressing vectors were transformed into apc10Δ cells and assessed for temperature sensitive growth. Two of the peptides, C43-4 and C2-4B, suppressed the apc10Δ growth phenotype at 30 and 34° C. (FIG. 1B-D). […]
Over 100 peptides that bound either Apc5 or Apc10 were recovered from millions screened. […] Vectors expressing these 6 peptides were transformed into APC mutant cells and assessed for ts growth.
Methods • 1. […] The growth of the cells was determined by measuring the optical density (OD) of the cells at 600 nm (OD600) • 3. […]

[3] = test system: wild type (WT) yeast cells; experiment: Spot dilution growth and stress resistance of wild type yeast cells expressing peptides; format: cell-based
Description: (§5) A. apc5^CA (temperature sensitive allele) cells were transformed with C43-4, C2-4B or an empty vector. Cells grown overnight in 2% Glu were struck onto 2% Glucose plates and used for the yeast replicative lifespan (RLS) assay. B. Wild type (WT) cells transformed with C43-4, C2-4B or an empty vector were grown to stationary phase in 2% Glu media, then after 2 days spot diluted onto 2% Glu or 2% Gal to induce expression of the aptamers.
The cells were exposed to 5 sec of UV from a UV box prior to incubation. The plus signs define growth compared to the empty vector control.
(§6) The six peptide expressing vectors were transformed into apc10Δ cells and assessed for temperature sensitive growth. Two of the peptides, C43-4 and C2-4B, suppressed the apc10Δ growth phenotype at 30 and 34° C. (FIG. 1B-D). […] However, C43-4 and C2-4B increased replicative and chronological lifespan in both apc5^CA and WT cells, respectively (FIG. 2A). […] H2O2 induces oxidative stress whereas galactose induces a carbon stress.
These cells were spot diluted on Trp-plates and grown at the temperatures shown and/or exposed to ultraviolet (UV) irradiation (FIG. 11). At low level expression on glucose, some of the mutations caused stress dependent phenotypes.
Methods • 1. Cells were cultured overnight in Trp-2% glucose media • 2. The growth of the cells was determined by measuring the optical density (OD) of the cells at 600 nm (OD600) • 3. Cells were diluted to OD600 of 1 with fresh culture media • 4. 100 ul of each culture was pipetted into a well of a 96 well plate • 5. 10 ul of the each starting culture was pipetted into 90 ul of water in 4 additional wells to make a 10-fold serial spot dilution • 6. 5 ul from each serial dilution was spotted onto plates containing standard growth media with either 2% glucose or 2% galactose using a multi-pipettor • 7. The plates were exposed to UV • 8. The plates were then placed at room temperature, 30, 34 or 37° C. for 3-7 days • 9. The plates were scanned and saved as tiff files

apc5^CA cells = experiment: Yeast replicative lifespan (RLS) assay; format: cell-based
Description: as §5, §4

WT cells = experiment: Chronological lifespan of WT yeast cells; format: cell-based
Description: as §5, §6

yeast proteins = experiment: Yeast 2-hybrid assay for proteins interacting with the peptides; format: binding

SWLNGSGGVVLWLFSNFCCG [Y36]
Binding to the APC in a yeast 2HY assay (APC): not bind the APC in a yeast 2HY
apc5^CA temperature sensitive (ts) growth / viability of an apc5 temperature sensitive mutant [1]: increases the viability; also recorded: rescued; also recorded: Rescues apc5^CA temperature

SKWTWRMCMSWTVDRFAPVPWP [24-1]
Binds Apc5 in a yeast 2 hybrid assay (Apc5): Binds Apc5
Binds Apc5 in a yeast 2 hybrid assay (Apc5; listed as SEQ ID NO: 7): binds Apc5
Viability of an APC mutant [2]: increases the viability

NGSSHNDARVRRLTLISRLC (Artificial Sequene) [C43-4-3, Version of C43-4 where the leucine residue at position 8 is replaced with alanine]
Binds Apc10 in a yeast 2 hybrid assay (Apc10): binds Apc10
Toxicity in apc10Δ cells (apc10Δ cells; glucose or galactose media, 5 sec UV (FIG. 13)): remained toxic
Resistance to UV stress compared to C43-4 cells ([3]; FIG. 11, UV treated, for example at room temperature): increased resistance to UV stress
Growth compared to C43-4 cells ([3]; FIG. 11, for example at room temperature): increased growth
Stress resistance at low level expression ([3]; WT cells on glucose, temperature and/or UV stress, versus empty vector): increased stress resistance further

RMPQWWQWMWV [C2-4B, Peptide aptamer with homology to yeast protein Sum1]
Binds Apc5 in a yeast 2 hybrid assay (Apc5): Binds Apc5
Binds Apc5 in a yeast 2 hybrid assay (Apc5; listed as 02-4B): binds Apc5
Viability of an APC mutant [2]: increases the viability
apc10Δ growth phenotype (apc10Δ cells; 30 and 34° C.): suppressed
Log phase growth of wild type (WT) cells ([3]; 30° C.): Neither C43-4 nor C2-4B influenced
Stress resistance when overexpressed in WT yeast cells ([3]; overexpressed, H2O2 oxidative stress, galactose carbon stress): increased stress resistance
Replicative lifespan (apc5^CA cells): increased
Chronological lifespan (WT cells): increased

GRMLMTYLMYFMVLWVPRPWGPPL [1-8]
Binds Apc10 in a yeast 2 hybrid assay (Apc10): Binds Apc10
Binds Apc10 in a yeast 2 hybrid assay (Apc10; listed as SEQ ID NO: 8): binds Apc10
Viability of an APC mutant [2]: increases the viability

CECLETETFHPITRHLIVPV [9-5]
Binds Apc5 in a yeast 2 hybrid assay (Apc5): Binds Apc5
Binds Apc5 in a yeast 2 hybrid assay (Apc5; listed as SEQ ID NO. 3): binds Apc5
Viability of an APC mutant [2]: increases the viability
Proteins identified as interacting in a yeast 2 hybrid assay (yeast proteins): Interacts with Die2, Tim44, Yrm1

GALKEVCICIVESVGGEVFSGP [compound 4]
Binds Apc5 in a yeast 2 hybrid assay (Apc5): Binds Apc5
Binds Apc5 in a yeast 2 hybrid assay (Apc5; listed as SEQ ID NO. 6): binds Apc5
Viability of an APC mutant [2]: increases the viability
Proteins identified as interacting in a yeast 2 hybrid assay (yeast proteins): Identified as interacting with Hxt2,; also recorded: Mad2, Ubc7, Rpp2, Kap122, Sfa1,; also recorded: Oac1 and Vps13 in a yeast 2-

RRCLSIRTENLAWEGKFLRV [50-1]
Binds Apc10 in a yeast 2 hybrid assay (Apc10): Binds Apc10
Binds Apc10 in a yeast 2 hybrid assay (Apc10; listed as SEQ ID NO: 9): binds Apc10
Viability of an APC mutant [2]: increases the viability
Proteins identified as interacting in a yeast 2 hybrid assay (yeast proteins): Identified as interacting with Pxa1,; also recorded: Rrp12, and Hfm1 in a yeast 2-

PSYNTIKYHETHGGRHPRRQPKRPI [3-1]
Binds Apc10 in a yeast 2 hybrid assay (Apc10): Binds Apc10
Binds Apc10 in a yeast 2 hybrid assay (Apc10; listed as SEQ ID NO. 5): binds Apc10
Viability of an APC mutant [2]: increases the viability
Proteins identified as interacting in a yeast 2 hybrid assay (yeast proteins): Identified as interacting with Sld5,; also recorded: Hms2, Gnt1 and Vnx1 in a yeast
